Compound: CCOC(=O)CCNc1cc(N2CCc3ccccc3CC2)nc(-c2ccccn2)n1 [GSK-J4] + CC1(C)CCC(c2ccc(Cl)cc2)=C(CN2CCN(c3ccc(C(=O)NS(=O)(=O)c4ccc(N[C@H](CCN5CCOCC5)CSc5ccccc5)c(S(=O)(=O)C(F)(F)F)c4)cc3)CC2)C1 [Navitoclax] (partner 0.5 µM)
Assay: relative viability (nuclei count vs DMSO), 5 days (fraction); higher = more cells survive
Conditions: first compound 0.5 µM
Method in brief: (§1)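 Relative viability is defined as nuclei in treated wells over nuclei in vehicle wells. Duplicate plates were run and medians reported. Lung cancer cell lines in 1536-well plates were dosed by pin tool one day after seeding, with one drug or with a fixed anchor-drug dose plus five library-drug doses (not always all listed) in √10 steps, and nuclei were counted after 5 days.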

Cell Line | relative viability
LXF-289 | 0.864
NCI-H322M | 1.18
LC-2-ad | 0.464
HCC-827 | 1.02
CAL-12T | 1.2
HCC-15 | 0.692
HOP-62 | 0.955
NCI-H460 | 1.02
LU99A | 0.788
NCI-H2085 | 0.971
A-427 | 0.951
NCI-H520 | 1.07
NCI-H838 | 1.13
NCI-H596 | 1.02
NCI-H3122 | 1.02
BEN | 0.0769

Cell Line | relative viability
NCI-H1395 | 1.31
201T | 1.19
NCI-H1993 | 1.14
NCI-H1355 | 0.913
NCI-H2405 | 0.835
NCI-H1437 | 1.03
COR-L 105 | 0.692
H3255 | 0.474
NCI-H2347 | 0.7
NCI-H1975 | 1.05
NCI-H441 | 0.818
NCI-H1650 | 1.07
NCI-H1915 | 0.759
NCI-H2087 | 0.795
HCC-366 | 1.08

Same assay, conditions: first compound 1.581 µM

Cell Line | relative viability
LXF-289 | 0.838
NCI-H322M | 1.18
LC-2-ad | 0.389
HCC-827 | 0.991
CAL-12T | 1.17
HCC-15 | 0.701
HOP-62 | 0.989
NCI-H460 | 0.984
LU99A | 0.746
NCI-H2085 | 1.12
NCI-H520 | 0.957
NCI-H838 | 1.07
NCI-H596 | 0.955
NCI-H3122 | 1
BEN | 0.0597
NCI-H1395 | 1.08
201T | 1.28
NCI-H1993 | 0.951
NCI-H1355 | 0.793
NCI-H2405 | 0.848
NCI-H1437 | 1.03
COR-L 105 | 0.551
H3255 | 0.494
NCI-H2347 | 0.746
NCI-H1975 | 1.11
NCI-H441 | 0.362
NCI-H1650 | 0.916
NCI-H1915 | 0.713
NCI-H2087 | 1.08
HCC-366 | 0.806

Same assay, conditions: first compound 5 µM

Cell Line | relative viability
LXF-289 | 0.955
NCI-H322M | 1.29
LC-2-ad | 0.407
HCC-827 | 1.06
CAL-12T | 1.47
HCC-15 | 0.779
HOP-62 | 1.11
NCI-H460 | 1.09
LU99A | 0.852
NCI-H2085 | 1.13
A-427 | 0.925
NCI-H520 | 1.21
NCI-H596 | 1.1
NCI-H3122 | 1.02
NCI-H1395 | 0.896
201T | 1.25
NCI-H1993 | 1.13
NCI-H1355 | 1.18
NCI-H1437 | 1.03
COR-L 105 | 0.647
H3255 | 0.543
NCI-H2347 | 0.774
NCI-H441 | 0.508
NCI-H1650 | 1.33
NCI-H1915 | 0.747

Same assay, conditions: first compound 15.81 µM

Cell Line | relative viability
LXF-289 | 0.933
NCI-H322M | 1.05
LC-2-ad | 0.374
HCC-827 | 1
CAL-12T | 1.16
HCC-15 | 0.566
HOP-62 | 1.1
NCI-H460 | 1.22
LU99A | 0.814
NCI-H2085 | 1.09
A-427 | 0.906
NCI-H520 | 0.694
NCI-H838 | 1.08
NCI-H596 | 0.846
NCI-H3122 | 1.04
BEN | 0.0496

Cell Line | relative viability
NCI-H1395 | 1.05
201T | 1.21
NCI-H1993 | 0.866
NCI-H1355 | 0.815
NCI-H2405 | 0.952
NCI-H1437 | 1.08
COR-L 105 | 0.88
H3255 | 0.368
NCI-H2347 | 0.829
NCI-H1975 | 1.04
NCI-H441 | 0.667
NCI-H1650 | 0.995
NCI-H1915 | 0.715
NCI-H2087 | 0.99
HCC-366 | 1.02

Same assay, conditions: first compound 50 µM

Cell Line | relative viability
LXF-289 | 0.867
NCI-H322M | 1.17
LC-2-ad | 0.41
HCC-827 | 0.994
CAL-12T | 1.21
HCC-15 | 0.444
HOP-62 | 0.707
NCI-H460 | 0.994
LU99A | 0.633
NCI-H2085 | 0.999
A-427 | 0.782
NCI-H520 | 1.06
NCI-H838 | 1.14
NCI-H596 | 0.977
NCI-H3122 | 0.973
BEN | 0.042

Cell Line | relative viability
NCI-H1395 | 0.898
201T | 1.16
NCI-H1993 | 0.681
NCI-H1355 | 0.924
NCI-H2405 | 0.928
NCI-H1437 | 0.319
COR-L 105 | 0.679
H3255 | 0.444
NCI-H2347 | 0.608
NCI-H1975 | 1.15
NCI-H441 | 0.535
NCI-H1650 | 0.565
NCI-H1915 | 0.765
NCI-H2087 | 0.758
HCC-366 | 1.03

Compound: CN1CCC(CC1)OC2=CC(=C(C=C2)NC3=NC=C4C(=N3)N(C(=O)N4C)C5CCCC5)OC [AZ3146] + CC1(C)CCC(c2ccc(Cl)cc2)=C(CN2CCN(c3ccc(C(=O)NS(=O)(=O)c4ccc(N[C@H](CCN5CCOCC5)CSc5ccccc5)c(S(=O)(=O)C(F)(F)F)c4)cc3)CC2)C1 [Navitoclax] (partner 0.5 µM)
Assay: as above
Conditions: first compound 0.08 µM
Method in brief: as §1

Cell Line | relative viability
LXF-289 | 0.94
NCI-H322M | 1.24
LC-2-ad | 0.425
HCC-827 | 0.964
CAL-12T | 1.21
HCC-15 | 0.725
HOP-62 | 1.08
NCI-H460 | 1.1
LU99A | 0.698
NCI-H2085 | 1.03
A-427 | 0.96
NCI-H520 | 1.18
NCI-H838 | 1.12
NCI-H596 | 1.02
NCI-H3122 | 1.05
NCI-H1395 | 1.21
201T | 1.19
NCI-H1993 | 0.972
NCI-H1355 | 0.974
NCI-H2405 | 0.836
NCI-H1437 | 1.02
COR-L 105 | 0.805
H3255 | 0.527
NCI-H2347 | 0.76
NCI-H1975 | 1.19
NCI-H441 | 0.416
NCI-H1650 | 1.21
NCI-H1915 | 0.783
NCI-H2087 | 1.04
HCC-366 | 1.01

Same assay, conditions: first compound 0.253 µM

Cell Line | relative viability
LXF-289 | 1.03
NCI-H322M | 1.12
LC-2-ad | 0.385
HCC-827 | 1.02
CAL-12T | 1.28
HCC-15 | 0.659
HOP-62 | 1.05
NCI-H460 | 1.21
LU99A | 0.764
NCI-H2085 | 1.14
A-427 | 0.967
NCI-H520 | 1.06
NCI-H838 | 1.19
NCI-H596 | 0.884
NCI-H3122 | 0.985
BEN | 0.0708
NCI-H1395 | 0.924
201T | 1.2
NCI-H1993 | 0.935
NCI-H1355 | 0.872
NCI-H1437 | 1.09
COR-L 105 | 0.712
H3255 | 0.35
NCI-H2347 | 0.763
NCI-H1975 | 1.18
NCI-H441 | 0.576
NCI-H1650 | 1.34
NCI-H1915 | 0.807
NCI-H2087 | 1.06
HCC-366 | 0.958

Same assay, conditions: first compound 0.8 µM

Cell Line | relative viability
LXF-289 | 0.883
NCI-H322M | 1.1
LC-2-ad | 0.649
HCC-827 | 0.997
CAL-12T | 1.24
HCC-15 | 0.703
HOP-62 | 0.938
NCI-H460 | 1.14
LU99A | 1.01
NCI-H2085 | 1.06
A-427 | 0.957
NCI-H520 | 1.04
NCI-H838 | 1.17
NCI-H596 | 0.9
NCI-H3122 | 1.03
BEN | 0.0628

Cell Line | relative viability
NCI-H1395 | 0.985
201T | 1.16
NCI-H1993 | 0.993
NCI-H1355 | 1.04
NCI-H2405 | 1
NCI-H1437 | 1.07
COR-L 105 | 0.745
H3255 | 0.582
NCI-H2347 | 0.594
NCI-H1975 | 1.14
NCI-H441 | 0.53
NCI-H1650 | 1.26
NCI-H1915 | 0.807
NCI-H2087 | 1.08
HCC-366 | 1.06

Same assay, conditions: first compound 2.53 µM

Cell Line | relative viability
LXF-289 | 0.943
NCI-H322M | 1.24
LC-2-ad | 0.519
HCC-827 | 1.02
CAL-12T | 1.32
HCC-15 | 0.718
HOP-62 | 1.13
NCI-H460 | 1.08
LU99A | 0.868
NCI-H2085 | 1.08
A-427 | 0.98
NCI-H520 | 1.1
NCI-H838 | 1.13
NCI-H596 | 0.95
NCI-H3122 | 1
BEN | 0.0467

Cell Line | relative viability
NCI-H1395 | 1.09
201T | 1.27
NCI-H1993 | 0.929
NCI-H1355 | 0.922
NCI-H2405 | 0.859
NCI-H1437 | 1.13
COR-L 105 | 0.791
H3255 | 0.628
NCI-H2347 | 0.88
NCI-H1975 | 1.17
NCI-H441 | 0.547
NCI-H1650 | 1.38
NCI-H1915 | 0.816
NCI-H2087 | 1.05
HCC-366 | 1.16

Same assay, conditions: first compound 8 µM

Cell Line | relative viability
LXF-289 | 0.926
NCI-H322M | 1.23
LC-2-ad | 0.685
HCC-827 | 0.998
CAL-12T | 1.17
HCC-15 | 0.727
HOP-62 | 0.913
NCI-H460 | 0.298
LU99A | 0.834
NCI-H2085 | 1.03
A-427 | 0.943
NCI-H520 | 0.981
NCI-H838 | 0.93
NCI-H596 | 0.929
NCI-H3122 | 1.03
BEN | 0.176

Cell Line | relative viability
NCI-H1395 | 1.18
201T | 1.2
NCI-H1993 | 0.898
NCI-H1355 | 1.01
NCI-H2405 | 1.08
NCI-H1437 | 1.14
COR-L 105 | 0.711
H3255 | 0.467
NCI-H2347 | 0.833
NCI-H1975 | 1.01
NCI-H441 | 0.683
NCI-H1650 | 1.19
NCI-H1915 | 0.814
NCI-H2087 | 0.968
HCC-366 | 1.14

Compound: CN1CCC(CC1)OC2=CC(=C(C=C2)NC3=NC=C4C(=N3)N(C(=O)N4C)C5CCCC5)OC [AZ3146] + COc1cc2c(Oc3ccc(NC(=O)C4(C(=O)Nc5ccc(F)cc5)CC4)cc3F)ccnc2cc1OCCCN1CCOCC1 [Foretinib] (partner 0.25 µM)
Assay: as above
Conditions: first compound 0.08 µM
Method in brief: as §1

Cell Line | relative viability
LXF-289 | 0.905
NCI-H322M | 0.893
